# Assay results from patent US20240148821A1, “PHARMACEUTICAL USE OF CYCLIC PEPTIDE COMPOUND” (CHUGAI SEIYAKU KABUSHIKI KAISHA, priority 2021, published 2024).
# Bridge positions count the residues as written; N and C are the ends. Square brackets hold non-standard residues; d marks the D form. Peptide text beside a SMILES is read from it. * marks the point of attachment. hPhe(3,5-F2-4-CF3) = N[C@@H](CCc1cc(F)c(C(F)(F)F)c(F)c1)C(=O)O; hPhe(3-Cl-4-CF3) = N[C@@H](CCc1ccc(C(F)(F)F)c(Cl)c1)C(=O)O; hPhe(4-CF3) = N[C@@H](CCc1ccc(C(F)(F)F)cc1)C(=O)O; 3Oxa8azabicyclo(3.2.1)octane = C1CC2COCC1N2*; NEtPhe(4-Me) = CCN[C@@H](Cc1ccc(C)cc1)C(=O)O; NMePhe(4-Cl) = CN[C@@H](Cc1ccc(Cl)cc1)C(=O)O; NMeAla(cPent) = CN[C@@H](CC1CCCC1)C(=O)O; NMeGly(cPent) = CN[C@H](C(=O)O)C1CCCC1; NMeCha = CN[C@@H](CC1CCCCC1)C(=O)O; NMeChg = CN[C@H](C(=O)O)C1CCCCC1; NMeF = CN[C@@H](Cc1ccccc1)C(=O)O; NMeD = CN[C@@H](CC(=O)O)C(=O)O; CH2CONHtBu = CC(C)(C)NC(=O)C*; NMeL = CN[C@@H](CC(C)C)C(=O)O; NMeV = CN[C@H](C(=O)O)C(C)C; d(β3hA) = C[C@@H](N)CC(=O)O; NMeS = CN[C@@H](CO)C(=O)O; dNMeS = CN[C@H](CO)C(=O)O; NMeA = CN[C@@H](C)C(=O)O; NMeAib = CNC(C)(C)C(=O)O; Nle = CCCC[C@H](N)C(=O)O; Piperidide = C1CCN(*)CC1; Pyrrolidide = C1CCN(*)C1; Ac5c = NC1(C(=O)O)CCCC1; Aze = O=C(O)[C@@H]1CCN1; Ac4c = NC1(C(=O)O)CCC1; Sar = CNCC(=O)O
# System: Human pancreatic cancer cell line AsPC-1 (G12D mutation Kras)
# Assay: AsPC-1 cell growth inhibition (AsPC-1 CGI)
# Assay type: cell-based
# Conditions: read-out: AsPC-1 cell growth inhibition, 50% growth inhibitory concentration (IC50 value); 96 hours, CellTiter-Glo, values classified in ranges
# Procedure: Test compounds were serially dilated with dimethyl sulfoxide, and 200 nL was then dispensed to a U-bottom 96-well plate using Labcyte Echo. […] The cell suspension was dispensed to a. plate containing a test compound at 100 μL per well and incubated at 37° C. in a 5% carbon dioxide gas incubator. 96 hours later, 80 μL of CellTiter-Glo (Promega) was added to each well and fluorescence was measured.
row,SMILES,IC50 [µM]
1,CC(C)C[C@H]1C(=O)N[C@@H](C(C)C)C(=O)N(C)CC(=O)N(C)CC(=O)N(C)[C@@H](CC2CCCCC2)C(=O)N(C)CC(=O)N[C@@H](CCc2ccc(C(F)(F)F)c(Cl)c2)C(=O)N2CCC[C@H]2C(=O)NC2(CCCC2)C(=O)N(C)[C@@H](CC(C)C)C(=O)N[C@H](C)CC(=O)N1C [Compound 1452] (cyclo([Ac5c][NMeL][d(β3hA)][NMeL]V[Sar][Sar][NMeCha][Sar][hPhe(3-Cl-4-CF3)]P)),> 0.5
2,CC[C@H](C)[C@@H]1NC(=O)[C@H](CC(C)C)N(C)C(=O)C[C@@H](C(=O)N2CCCC2)N(C)C(=O)[C@H](C2CCCCC2)N(C)C(=O)C2(CCC2)NC(=O)[C@@H]2CCCN2C(=O)[C@H](CCc2ccc(C(F)(F)F)c(Cl)c2)NC(=O)CN(C)C(=O)[C@H](CC2CCCCC2)N(C)C(=O)CN(C)C(=O)CN(C)C1=O [Compound 1894] ([NMeL]I[Sar][Sar][NMeCha][Sar][hPhe(3-Cl-4-CF3)]P[Ac4c][NMeChg][NMeD]-Pyrrolidide; lactam N-11),≤ 0.02
3,CC[C@H](C)[C@@H]1NC(=O)[C@H](C)N(C)C(=O)C[C@@H](C(=O)N2CCCCC2)N(C)C(=O)[C@H](C(C)C)N(C)C(=O)C2(CCCC2)NC(=O)[C@@H]2CCCN2C(=O)[C@H](CCc2ccc(C(F)(F)F)c(Cl)c2)NC(=O)CN(C)C(=O)[C@H](CC2CCCCC2)N(C)C(=O)[C@@H]2CCN2C(=O)[C@H](CC2CCCCC2)N(C)C1=O [Compound 1580] ([NMeA]I[NMeCha][Aze][NMeCha][Sar][hPhe(3-Cl-4-CF3)]P[Ac5c][NMeV][NMeD]-Piperidide; lactam N-11),> 0.5
4,CC[C@H](C)[C@@H]1NC(=O)[C@H](C)N(C)C(=O)C[C@@H](C)NC(=O)[C@H](C(C)C)N(C)C(=O)[C@H](Cc2ccccc2)N(C)C(=O)[C@H](CC(C)C)N(C)C(=O)[C@H](CCc2ccc(C(F)(F)F)cc2)NC(=O)CN(C)C(=O)[C@H](Cc2ccc(Cl)cc2)N(C)C(=O)CN(C)C(=O)[C@@H]2CCN2C1=O [Compound 71] (cyclo([Aze][Sar][NMePhe(4-Cl)][Sar][hPhe(4-CF3)][NMeL][NMeF][NMeV][d(β3hA)][NMeA]I)),> 0.5
5,CCCC[C@@H]1NC(=O)[C@H](CCc2ccc(C(F)(F)F)c(Cl)c2)NC(=O)CN(C)C(=O)[C@H](CC2CCCC2)N(C)C(=O)[C@@H]2CCN2C(=O)[C@H](C)N(C)C(=O)[C@H]([C@@H](C)CC)NC(=O)[C@H](CC(C)C)N(C)C(=O)C[C@@H](C(=O)N2CCCCC2)N(C)C(=O)[C@H](CC(C)C)NC(=O)C(C)(C)N(C)C1=O [Compound 691] ([NMeL]I[NMeA][Aze][NMeAla(cPent)][Sar][hPhe(3-Cl-4-CF3)][Nle][NMeAib]L[NMeD]-Piperidide; lactam N-11),> 0.5
6,CC[C@H](C)[C@@H]1NC(=O)[C@H](CC(C)C)N(C)C(=O)C[C@@H](C)NC(=O)[C@H](C(C)C)N(C)C(=O)C2(CCCC2)NC(=O)[C@@H]2CCCN2C(=O)[C@H](CCc2ccc(C(F)(F)F)c(Cl)c2)NC(=O)CN(C)C(=O)[C@H](Cc2ccccc2)N(C)C(=O)CN(C)C(=O)CN(C)C1=O [Compound 1606] (cyclo([Ac5c][NMeV][d(β3hA)][NMeL]I[Sar][Sar][NMeF][Sar][hPhe(3-Cl-4-CF3)]P)),> 0.5
7,"CC[C@H](C)[C@@H]1NC(=O)[C@H](CC(C)C)N(C)C(=O)C[C@@H](C(=O)N2C3CCC2COC3)N(C)C(=O)[C@H](C2CCCC2)N(C)C(=O)C2(CCCC2)NC(=O)[C@@H]2CCCN2C(=O)[C@H](CCc2cc(F)c(C(F)(F)F)c(F)c2)NC(=O)CN(C)C(=O)[C@H](Cc2ccc(C)cc2)N(CC)C(=O)[C@@H]2CCN2C(=O)[C@H](C)N(C)C1=O [Compound 1215] ([NMeL]I[NMeA][Aze][NEtPhe(4-Me)][Sar][hPhe(3,5-F2-4-CF3)]P[Ac5c][NMeGly(cPent)][NMeD]-{3Oxa8azabicyclo(3.2.1)octane}; lactam N-11)",≤ 0.02
8,CC[C@H](C)[C@@H]1NC(=O)[C@H](CC(C)C)N(C)C(=O)C[C@@H](C(=O)N2CCCCC2)N(C)C(=O)[C@H](C(C)C)N(C)C(=O)C2(CCCC2)NC(=O)[C@@H](CO)N(C)C(=O)[C@H](CCc2ccc(C(F)(F)F)c(Cl)c2)NC(=O)CN(C)C(=O)[C@H](CC2CCCCC2)N(C)C(=O)[C@@H]2CCN2C(=O)[C@H](C)N(C)C1=O [Compound 1444] ([NMeL]I[NMeA][Aze][NMeCha][Sar][hPhe(3-Cl-4-CF3)][dNMeS][Ac5c][NMeV][NMeD]-Piperidide; lactam N-11),> 0.5
9,"CC[C@H](C)[C@@H]1NC(=O)[C@H](CC(C)C)N(C)C(=O)C[C@@H](C(=O)N2CCCC2)N(C)C(=O)[C@H](C2CCCC2)N(C)C(=O)C2(CCCC2)NC(=O)[C@@H]2CCCN2C(=O)[C@H](CCc2cc(F)c(C(F)(F)F)c(F)c2)NC(=O)CN(C)C(=O)[C@H](CC2CCCCC2)N(C)C(=O)CN(C)C(=O)CN(C)C1=O [Compound 1342] ([NMeL]I[Sar][Sar][NMeCha][Sar][hPhe(3,5-F2-4-CF3)]P[Ac5c][NMeGly(cPent)][NMeD]-Pyrrolidide; lactam N-11)",≤ 0.02
10,CC[C@H](C)[C@@H]1NC(=O)[C@H](CC(C)C)N(C)C(=O)C[C@@H](C(=O)N2CCCCC2)N(C)C(=O)[C@H](C(C)C)N(C)C(=O)C2(CCCC2)NC(=O)[C@@H]2CCCN2C(=O)[C@H](CCc2ccc(C(F)(F)F)c(Cl)c2)NC(=O)CN(C)C(=O)[C@H](CC2CCCCC2)N(C)C(=O)[C@@H]2CCN2C(=O)[C@H](COCC(=O)NC(C)(C)C)N(C)C1=O [Compound 998] ([NMeL]I[NMeS](CH2CONHtBu)[Aze][NMeCha][Sar][hPhe(3-Cl-4-CF3)]P[Ac5c][NMeV][NMeD]-Piperidide; lactam N-11),> 0.5
